Laboratory results as given in patent US9890368B2, “Polypeptide fragments comprising endonuclease activity and their use” (priority 2008, dated 2018).

Key:
PA-Nter (SEQ ID NO: 22) = PA-Nter (SEQ ID NO: 22) (Influenza A virus, UniProt P31343, G154E); format: binding, Influenza A virus A/Victoria/3/1975 (H3N2)
[1] = target: PA-Nter (SEQ ID NO: 22) endonuclease (Influenza A virus, UniProt P31343, G154E); format: biochemical, Influenza A virus A/Victoria/3/1975 (H3N2)

Compound	increase in thermal stability upon addition of divalent cation (PA-Nter (SEQ ID NO: 22))	apparent melting temperature (PA-Nter (SEQ ID NO: 22)) [°C]	effect on thermal stability of metal-free enzyme (PA-Nter (SEQ ID NO: 22))	thermal stability of PA-Nter in the presence of MnCl2 (PA-Nter (SEQ ID NO: 22))	inhibition of endonuclease activity on both RNA and DNA [1]
magnesium ions	to a lesser extent	–	–	–	–
calcium	to a lesser extent	–	–	–	–
O=C(O)C(=O)CC(=O)c1ccccc1 [DPBA, 2,4-Dioxo-4-phenylbutanoic acid]	–	65	no effect	further stabilizes	inhibited in a dose dependent manner
manganese ions	–	57	–	–	–
